# Laboratory results reported in EPA's aquatic toxicity sets.
# Columns and labels:
# Tetrahymena pyriformis = assay: 48 h IGC50 (-log10 mol/L); higher = more toxic
# Pimephales promelas = assay: 96 h LC50 (-log10 mol/L); higher = more toxic
SMILES,48 h IGC50 (-log10 mol/L) (Tetrahymena pyriformis),96 h LC50 (-log10 mol/L) (Pimephales promelas)
COC(C)=O,1.41,2.27
O=[N+]([O-])c1c(Cl)cc(Cl)c([N+](=O)[O-])c1Cl,5.19,6.09
Nc1cccc(OCc2ccccc2)c1,3.88,4.34
C=CC(=O)OCCO,3.69,4.38
CC(C)(C)c1cc(C(C)(C)C)c(O)c(C(C)(C)C)c1,3.36,6.63
O=C(c1ccccc1)c1ccncc1,2.91,3.25
Cc1nc(C)c(C)o1,1.99,2.4
Oc1c(Br)cc(Br)cc1Br,4.91,4.71
CC(C)(CC(=O)O)CC(=O)O,2.34,1.05
CCOC(=O)c1ccccc1,2.99,4.25
Nc1ccc(F)cc1,3.59,3.82
CCOP(=O)(Cc1ccccc1)OCC,2.57,2.83
CCCCOC(=O)CCC(=O)OCCCC,3.51,4.71
CCCCOC(=O)CCCCC(=O)OCCCC,3.79,4.85
CCC(C)=NO,1.93,2.01
CC(=O)C(C)C,1.83,2
CCCCCCCCCCC(C)=O,4.67,5.19
CC(C)COC(=O)c1ccccc1C(=O)OCC(C)C,4.44,5.49
c1ccc2ncccc2c1,3.09,3.45
Cc1cccc(Cl)c1C#N,3.46,4
CCOc1cc(C=O)ccc1O,3.02,3.28

SMILES,48 h IGC50 (-log10 mol/L) (Tetrahymena pyriformis),96 h LC50 (-log10 mol/L) (Pimephales promelas)
CN1CCNCC1,2.04,1.64
CCCCCO,1.97,2.22
CCCCCCCCO,3.58,3.98
Nc1cc([N+](=O)[O-])cc([N+](=O)[O-])c1,3.94,3.93
CC(C)C(O)C(C)C,2.29,2.85
Cc1cccc(O)c1,2.92,3.29
O=C(c1ccc(Br)cc1)c1cccnc1,3.82,4.11
C=COC(C)=O,2.14,3.57
O=Cc1cc(O)ccc1[N+](=O)[O-],3.33,3.6
NC(=O)c1ccccc1O,2.76,3.13
N#Cc1ccc([N+](=O)[O-])cc1,3.57,3.78
CC(=O)c1ccc(Cl)cc1Cl,3.62,4.21
Brc1ccc(Br)cc1,3.68,5.28
O=c1cc(-c2ccccc2)oc2ccccc12,4.41,4.8
CCOC(=O)c1ccc(N)cc1,3.7,3.67
C=CC(=O)OC1CCCCC1,3.76,5.02
Nc1ccccc1,2.77,2.99
c1cc(CCc2ccncc2)ccn1,2.97,3.09
CC(C)c1cccc(C(C)C)c1N,3.76,4.1
O=C1CCCCC1,1.77,2.19
CCC(C)N (configuration not stated),2.33,2.42

SMILES,48 h IGC50 (-log10 mol/L) (Tetrahymena pyriformis),96 h LC50 (-log10 mol/L) (Pimephales promelas)
N#CC(Br)Br,5.4,5.56
C=C(C)C(=O)OCc1ccccc1,3.65,4.58
CCCCC=O,2.98,3.83
O=Cc1ccccc1[N+](=O)[O-],3.17,4.02
C=Cn1c2ccccc2c2ccccc21,5.24,7.81
CCCCCCCCCCCO,4.96,5.22
N#Cc1cccc([N+](=O)[O-])c1,3.45,3.39
Cc1cc(Cl)nc(N)n1,2.53,3.01
OCCCCl,1.6,2.07
O=Cc1ccc(Cl)cc1,3.4,4.8
O=Cc1cc(Br)ccc1O,4.11,5.19
CN(C)c1ccccn1,2.45,2.98
CC(O)CCl (configuration not stated),1.51,2.59
CCCCOC(=O)/C=C/C(=O)OCCCC,4.49,5.52
CCCCCOCCCCC,4.09,4.71
CCCCCCCCC#N,3.62,4.3
C1N2CN3CN1CN(C2)C3,–,0.449
Cc1cccc([N+](=O)[O-])c1N,–,3.8
COP(=O)(OC)Oc1nc(Cl)c(Cl)cc1Cl,–,8.16
CCC(C)C=O (configuration not stated),–,3.94
CNC(=O)Oc1cccc2c1OC(C)(C)C2,–,5.4

SMILES,48 h IGC50 (-log10 mol/L) (Tetrahymena pyriformis),96 h LC50 (-log10 mol/L) (Pimephales promelas)
CCCCN,–,2.44
CCSCCCCSCC,–,4.47
C1=C[C@H]2CC[C@@H]1C2,–,3.97
C=C[C@@]1(C)CC[C@H]2C(=CC[C@@H]3[C@]2(C)CCC[C@@]3(C)C(=O)O)C1,–,5.54
C=CC(=C)C,–,2.95
CCOC(=O)[C@H](O)[C@@H](O)C(=O)OCC,–,2.5
O=C(O)C(Cl)(Cl)Cl,–,1.91
C=CCC1=C(C)[C@@H](OC(=O)[C@@H]2[C@@H](C=C(C)C)C2(C)C)CC1=O,–,6.67
CCC(C)C(C)C=O (configuration not stated),–,3.85
Cc1cocn1,–,1.78
CN(C)N=O,–,1.9
COc1ccc(OC)c(C(=O)CBr)c1,–,6.65
Cc1cc(O)c([N+](=O)[O-])cc1[N+](=O)[O-],–,4.79
CC(=O)c1ccc(Cl)c([N+](=O)[O-])c1,–,4.56
OCC(F)(F)F,–,2.92
C=C(Cl)Cl,–,2.86
COc1cc(C=O)cc(Br)c1O,–,3.59
C#CC(O)(c1ccccc1)c1ccccc1,–,4.27
CC(C)(C)SSC(C)(C)C,–,5.12
CC(C)=CC1C(C(=O)OCc2ccc(C)cc2C)C1(C)C (configuration not stated),–,6.67
CCOC(=O)/C=C/C(=O)OCC,–,4.58
